Values quoted from earlier work in patent publication US20090297541A1, “MATURATION OF DENDRITIC CELLS” (priority 2006, published 2009).

Legend:
IFNGR1 chain = conditions: high affinity
monocyte-derived DCs = conditions: MPLA alone at concentrations up to 100 μg/ml
immature DCs = conditions: MPLA at low doses (under 50 μg/ml)

Substance	Kd (IFNGR1 chain)	migration and functional maturation of DCs in vivo (murine DCs)	production of IL-12p70 or IL-10 (monocyte-derived DCs)	impact on DC maturation (monitored by IL-12 production) (immature DCs)
IFN-gamma: cytokine, homodimer of two noncovalently bound polypeptide subunits; IFNγ receptor agonist	~1 nM	–	–	–
Monophosphoryl lipid A [MPLA]	–	induces the migration and functional maturation of murine DCs in vivo	failed to induce any significant production of IL-12p70 or IL-10	no impact on DC maturation
